Measurements from the supplement of paper PMC10307832.

Compound: COC1=CC=C(C=C1)CN2C=CC3=C2C=C(C=C3)C(=O)NO + CS(=O)(=O)N1CCN(Cc2cc3nc(-c4cccc5[nH]ncc45)nc(N4CCOCC4)c3s2)CC1 [Pictilisib] (partner 1 µM)
Test: relative viability (nuclei count vs DMSO), 5 days (fraction); higher = more cells survive
Conditions: first compound 0.08 µM
Procedure, shortened: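 Lung cancer cell lines in 1536-well plates got either a single drug or a fixed anchor-drug dose together with five library-drug doses (not always all listed) in √10 steps, by pin tool, on the day after seeding. Nuclei were counted after 5 days, and relative viability is the treated-to-vehicle ratio of nuclei counts. Values are medians of duplicate plates.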

Row | Cell Line | relative viability
1 | NCI-H460 | 0.0712
2 | EMC-BAC-2 | 0.448
3 | IA-LM | 0.296
4 | NCI-H2009 | 0.601
5 | NCI-H1395 | 0.683
6 | NCI-H520 | 0.265
7 | EKVX | 0.327
8 | EBC-1 | 0.351
9 | NCI-H1299 | 0.834
10 | NCI-H1650 | 0.173
11 | EPLC-272H | 0.233
12 | PC-14 | 0.388
13 | LXF-289 | 0.309
14 | LC-2-ad | 0.437
15 | A549 | 0.446
16 | NCI-H1651 | 0.572
17 | COR-L23 | 0.496
18 | HCC-827 | 0.934
19 | RERF-LC-KJ | 0.468
20 | NCI-H1563 | 0.547
21 | NCI-H3122 | 0.571
22 | BEN | 0.504
23 | UMC-11 | 0.28
24 | NCI-H2085 | 0.44
25 | NCI-H727 | 0.344

Same assay, conditions: first compound 0.253 µM

Row | Cell Line | relative viability
26 | HCC-15 | 0.743
27 | NCI-H460 | 0.248
28 | EMC-BAC-2 | 0.549
29 | IA-LM | 0.388
30 | NCI-H2009 | 0.836
31 | COR-L 105 | 0.348
32 | NCI-H1395 | 0.653
33 | NCI-H520 | 0.266
34 | NCI-H358 | 0.429
35 | HCC-78 | 0.192
36 | EKVX | 0.443
37 | EBC-1 | 0.514
38 | NCI-H1299 | 1.03
39 | NCI-H1650 | 0.595
40 | EPLC-272H | 0.333
41 | LK-2 | 0.524
42 | PC-14 | 0.629

Row | Cell Line | relative viability
43 | LXF-289 | 0.779
44 | LC-2-ad | 0.597
45 | A549 | 0.585
46 | NCI-H1651 | 0.427
47 | COR-L23 | 0.788
48 | HCC-827 | 0.921
49 | RERF-LC-KJ | 0.571
50 | NCI-H1563 | 0.656
51 | NCI-H3122 | 0.629
52 | BEN | 0.589
53 | UMC-11 | 0.82
54 | LCLC-97TM1 | 0.283
55 | NCI-H2085 | 0.491
56 | A-427 | 0.743
57 | NCI-H727 | 0.299
58 | NCI-H838 | 0.464

Same assay, conditions: first compound 0.8 µM

Row | Cell Line | relative viability
59 | HCC-15 | 0.866
60 | NCI-H460 | 0.405
61 | EMC-BAC-2 | 0.555
62 | IA-LM | 0.373
63 | NCI-H2009 | 0.91
64 | COR-L 105 | 0.462
65 | NCI-H1395 | 0.58
66 | NCI-H520 | 0.314
67 | NCI-H358 | 0.422
68 | HCC-78 | 0.199
69 | EKVX | 0.424
70 | EBC-1 | 0.401
71 | NCI-H1299 | 0.77
72 | NCI-H1650 | 0.567
73 | EPLC-272H | 0.341
74 | LK-2 | 0.598
75 | PC-14 | 0.766

Row | Cell Line | relative viability
76 | LXF-289 | 0.754
77 | LC-2-ad | 0.547
78 | A549 | 0.504
79 | NCI-H1651 | 0.606
80 | COR-L23 | 0.714
81 | HCC-827 | 1.07
82 | RERF-LC-KJ | 0.511
83 | NCI-H1563 | 0.645
84 | NCI-H3122 | 0.652
85 | BEN | 0.582
86 | UMC-11 | 0.864
87 | LCLC-97TM1 | 0.205
88 | NCI-H2085 | 0.53
89 | A-427 | 0.787
90 | NCI-H727 | 0.553
91 | NCI-H838 | 0.512

Same assay, conditions: first compound 2.53 µM

Row | Cell Line | relative viability
92 | HCC-15 | 0.833
93 | NCI-H460 | 0.377
94 | EMC-BAC-2 | 0.553
95 | IA-LM | 0.371
96 | NCI-H2009 | 0.788
97 | COR-L 105 | 0.363
98 | NCI-H1395 | 0.583
99 | NCI-H520 | 0.276
100 | NCI-H358 | 0.337
101 | HCC-78 | 0.213
102 | EKVX | 0.522
103 | EBC-1 | 0.424
104 | NCI-H1299 | 0.658
105 | NCI-H1650 | 0.541
106 | EPLC-272H | 0.287
107 | LK-2 | 0.507
108 | PC-14 | 0.688

Row | Cell Line | relative viability
109 | LXF-289 | 0.799
110 | LC-2-ad | 0.439
111 | A549 | 0.502
112 | NCI-H1651 | 0.65
113 | COR-L23 | 0.727
114 | HCC-827 | 1.15
115 | RERF-LC-KJ | 0.608
116 | NCI-H1563 | 0.706
117 | NCI-H3122 | 0.577
118 | BEN | 0.544
119 | UMC-11 | 0.756
120 | LCLC-97TM1 | 0.227
121 | NCI-H2085 | 0.492
122 | A-427 | 0.643
123 | NCI-H727 | 0.306
124 | NCI-H838 | 0.413

Same assay, conditions: first compound 8 µM

Row | Cell Line | relative viability
125 | HCC-15 | 0.741
126 | NCI-H460 | 0.348
127 | EMC-BAC-2 | 0.466
128 | IA-LM | 0.23
129 | NCI-H2009 | 0.604
130 | COR-L 105 | 0.306
131 | NCI-H1395 | 0.505
132 | NCI-H520 | 0.271
133 | NCI-H358 | 0.296
134 | HCC-78 | 0.216
135 | EKVX | 0.439
136 | EBC-1 | 0.338
137 | NCI-H1299 | 0.593
138 | NCI-H1650 | 0.32
139 | EPLC-272H | 0.218
140 | LK-2 | 0.488
141 | PC-14 | 0.699

Row | Cell Line | relative viability
142 | LXF-289 | 0.723
143 | LC-2-ad | 0.427
144 | A549 | 0.472
145 | NCI-H1651 | 0.452
146 | COR-L23 | 0.711
147 | HCC-827 | 0.927
148 | RERF-LC-KJ | 0.472
149 | NCI-H1563 | 0.618
150 | NCI-H3122 | 0.518
151 | BEN | 0.499
152 | UMC-11 | 0.748
153 | LCLC-97TM1 | 0.123
154 | NCI-H2085 | 0.426
155 | A-427 | 0.606
156 | NCI-H727 | 0.488
157 | NCI-H838 | 0.399

Compound: COC1=CC=C(C=C1)CN2C=CC3=C2C=C(C=C3)C(=O)NO
Test: relative viability (nuclei count vs DMSO), 5 days (fraction); higher = more cells survive
Conditions: 0.08 µM
Procedure, shortened: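 Lung cancer cell lines received five library-drug doses (not always all listed) spaced by √10, pinned on vehicle-anchored 1536-well plates after an overnight stay at 37 °C. Five days later, with no medium change, nuclei were Hoechst-stained, imaged at 4× and counted with MetaXpress. Viability is treated-well nuclei relative to vehicle-well nuclei, as a median across plates. Passing plates had control CV below 25% and at least one doubling.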

Row | Cell Line | relative viability
158 | HCC-15 | 0.883
159 | NCI-H460 | 0.902
